Tested on: LPS-induced TNF-α in human whole blood
Assay: Persistence of compounds in human whole blood (preincubation, then LPS challenge, cytokine assay)
Assay type: cell-based
Conditions: average of 7 separate experiments in triplicate, FIG. 3
Procedure: FIG. 2 depicts the general scheme used to analyze antagonistic efficacy of drug after incubation in whole blood for various times.
Although some of the compounds of this invention are not rapidly removed from the circulation, their activity diminishes with a half-life of 1-3 hours. To maintain antagonistic efficacy, this rapid deactivation may require continuous administration. The study of this deactivation has led to the development of an assay to measure in vitro deactivation of drugs in human whole blood. This is done by preincubating lipid A antagonists with blood for various periods of time followed by addition of the LPS “challenge,” as is described above, incubation for three hours, and assay for released cytokines.

CCCCCCCCCCCC(=O)CC(=O)N[C@H]1[C@@H](OP(=O)(O)O)OC(CO[C@@H]2O[C@H](COC)[C@@H](OP(=O)(O)O)C(OCCC(CCCCCCC)OC(=O)CCC/C=C/C(C)CCCC)[C@H]2NC(=O)CC(=O)CCCCCCCCCCC)[C@@H](O)[C@@H]1OCC[C@H](O)CCCCCCC (stereo partly shown) [Compound B531]
persistence of LPS-antagonist activity (inhibition of TNF-α) versus time of preincubation: loses activity with increasing time of preincubation
